Broadly, the IC50 is the concentration that inhibits the measured activity by half.

From US6429204B1, “Method of inhibiting cancer growth” (University of Miami, priority 1997, dated 2002) come the findings set out here.

Read-outs that look alike come from different tables or passages of the source. Marks after values point to notes of the source that are not given here.

The test system of one data set is gelatinase B (MMP-9). Briefly: Gelatin zymography of conditioned media of TSU PR1 and MAT LyLu cells, MMP-9. The class given is cell-based. To be noted: 48 hours, serum-free medium. The procedure: Next we examined whether CMT-3 and doxycycline differentially affect the production of two major classes of gelatinases: gelatinase A (MMP-2) and gelatinase B (MMP-9). Confluent cultures of TSU PR1 and MAT LyLu cells were incubated with various concentrations of doxycycline and CMT-3 for 48 hours in serum-free medium. The conditioned media were then analyzed for MMPs by zymography as described below.
Conditioned media were collected from the cultures that had been treated with doxycycline or CMT-3 for 2 days. Media were then incubated with SDS-gel electrophoresis sample buffer for 30 min at room temperature, and then analyzed by gel electrophoresis on SDS-polyacrylamide gel (8%) containing gelatin (1 mg/mL). Following electrophoresis, the gels were washed twice with 0.25% TRITON® X100 for 30 min each, and incubated for 18 hr at 37° C. in an MMP digestion buffer comprising 20 mM Tris-HCl, pH 7.4, containing 30 mM NaCl, 1 mM PMSF, 10 mM CaCl2, 2 μM ZnSO4, 0.005% Brij35, and 0.02 NaN3 (Lokeshwar 1993a). After incubation, the gels were briefly rinsed in distilled water and stained with 0.25% Coomassie brilliant blue R250 prepared in 40% isopropanol solution for 1 hr. Gels were destained with 7% acetic acid. the locations of MMPs in the gels were visible as clear areas on a blue background, indicative of digested gelatin.

Data set [1] deals with in vitro activated gelatinases (MMPs) from MAT LyLu and TSU PR1 conditioned medium. Nature of the data set: 3H-gelatin gelatinase activity assay on processed conditioned medium of prostate cancer cells. It counts as biochemical. As to conditions: for IC50: read-out: 50% inhibition dose (IC50), activated gelatinases. The procedure:
The effects of CMT-3 and doxycycline on gelatinase activity or expression by prostate cancer cells were tested. First, we tested the capacity of CMT-3 and doxycycline to inhibit MMP secretion into culture medium. Gelatinase activity was measured using a method adapted from the method of Dean and Woessner (1985). Conditioned culture medium was collected from MAT LyLu and TSU PR1 cells treated with CMT-3 or doxycycline for two days. The serum-free culture medium comprised RPMI 1640 basal medium containing insulin (5 μg/mL), transferrin (5 μg/mL), selenious acid ([…]), and gentamicin (2 μg/mL). […] (Dean et al. 1987; Woessner 1991.) The dialyzed medium was assayed for gelatinase activity following activation of latent MMPs with 1 mM p-aminophenyl mercuric acetate (APMA) for 30 min at 37° C. The assay mix was 25 μg ^3H-gelatin (prepared from heat-denatured ^3H-acetylated acid-soluble collagen), 0.1 mL of processed culture-conditioned medium, 1 mM phenylmethyl sulfonyl fluoride (PMSF) in a total volume of 0.5 mL of an assay buffer (20 mM Tris-HCl, pH 7.4, 30 mM NaCl, 0.005% Brij35, 10 mM CaCl2, 2 μM ZnSO4, and 0.02% NaN3). In some cases, 1 mM CaCl2 (instead of 10 mM) was used. Blanks were obtained by adding 1 mM 1,10-phenanthroline. Doxycycline or CMT-3 were added to the assay mixture following activation of the latent MMPs and just before adding the substrate ^3H-gelatin.
MMP activity in the culture media was examined at 1 mM and 10 mM CaCl2, with no change in [Zn^2+] in the assay buffer. We employed 1 mM CaCl2, as this concentration is closer to physiological concentration, and 10 mM CaCl2, as it is reported to be the optimum concentration in in vitro assays (Woessner 1991). As is shown in Table 2, both CMT-3 and doxycycline inhibited in vitro activated gelatinases.

The subject of a further data set is MAT LyLu cells. Nature of the data set: Soluble nucleosome ELISA (programmed cell death), MAT LyLu. The class given is cell-based, rat. The procedure: An investigation of the cytotoxicity of chemically modified tetracycline compounds for cancer cells was undertaken to determine involvement of programmed cell death (apoptosis) (see Duke et al. 1986). MAT LyLu cells were incubated with various concentration of CMT-3 and doxycycline. Conditioned media were assayed for soluble nucleosomes, resulting from internucleosomal DNA strand breaks, using the Cell Death Detection ELISA Plus kit from Boehringer Mannheim GmbH (Catalog No. 1774425) according to the manufacturer's instructions. In the dosage-dependence trials, cells were incubated with the tetracycline compounds for 48 hr, and then media were collected. In the time trials, the cells were exposed to the tetracycline compounds for specific periods of time from 0 to 48 hr, and if appropriate were maintained in fresh media until 48 hr from the start of the experiment at which time media were collected.

The subject of data set [2] is normal prostate stromal cells. Nature of the data set: Alamar Blue viability assay, normal prostate stromal cells. The class given is cell-based, human. From the text:
Several cancer cell lines and normal cells were examined in vitro to determine whether tetracycline compounds produce cytotoxic (cell killing) effects. A conventional assay for viability of cultured cells based on redox activity in the cells was employed (Pagé et al. 1993). The assay uses a redox dye Alamar Blue, which is a fluorogenic indicator dye that is converted to a fluorescent red product only when cells are carrying out electron transport activity, a widely accepted criterion of viability.
Cultured cells from three prostate tumor cell lines, LNCAP, DU-145, and PC-3, and normal prostate stromal cells obtained by biopsy of a normal person, were allowed to grow to confluence in multiwell microplates to minimize differences in proliferative activity among the cell types at the time of exposure to the test compound. […] At the start of the experiment, and again at 1, 2, and 3 days, selected wells were incubated with the indicator dye for 3 hr, and the fluorescence was measured on a Cytofluor 2300 fluorescent microplate reader.

On to `NC(=O)C1=C(O)CC2CC3Cc4cccc(O)c4C(=O)C3=C(O)C2(O)C1=O` (stereo not shown) [CMT-3, 6-demethyl-6-deoxy-4-de(dimethylamino)tetracycline], for which the “MMP-9 levels in conditioned media (zymography)” value in the data set on gelatinase B (MMP-9) was “decreased MMP-2 and MMP-9 levels at a lower concentration than did doxycycline”. In addition, the “Percent Inhibition (gelatinase activity)” value in data set [1] (0.25 μM drug, 10 mM CaCl2) is given as 31.5 ± 1.2%; in data set [1] (0.50 μM drug, 1 mM CaCl2), 84.8 ± 10.1%; in data set [1] (0.50 μM drug, 10 mM CaCl2) it was 37.8 ± 7.5^b %; in data set [1] (1.0 μM drug, 1 mM CaCl2) it was 96.7 ± 4.6^a %; in data set [1] (1.0 μM drug, 10 mM CaCl2), 45.1 ± 2.9%; in data set [1] (2.0 μM drug, 10 mM CaCl2), 51.2 ± 2.6%. For the same compound, the “Percent Inhibition (gelatinase activity)” value in data set [1] (5.0 μM drug, 1 mM CaCl2) was 97.2 ± 2.9%; in data set [1] (5.0 μM drug, 10 mM CaCl2), 52.4 ± 3.5%; in data set [1] (10 μM drug, 1 mM CaCl2) it was 100%; in data set [1] (10 μM drug, 10 mM CaCl2), 69.9 ± 10.5%; in data set [1] (20 μM drug, 10 mM CaCl2), 78.9 ± 11.4%; in data set [1] (50 μM drug, 10 mM CaCl2), 94.2 ± 3.3%. Further, the IC50 in data set [1] (1 mM CaCl2) is 500 nM; in data set [1] (10 mM CaCl2), around 1500 nM. Besides, the “programmed cell death response after brief exposure” value with MAT LyLu cells (4 hr at 5 μg/mL or 10 μg/mL) was “sufficient to elicit a putative programmed cell death response”. Besides, the “soluble nucleosomes / programmed cell death induction” value in the data set with MAT LyLu cells (dosage-dependence, 48 hr) is reported as “dose-dependent increase in soluble nucleosomes”. Moreover, the “change in fluorescence (viability)” value in data set [2] (10 μM and 20 μM, three-day period) is reported as “virtually no change in fluorescence”. The cytotoxicity entry in data set [2] (50 µM) is given as “no comparable cytotoxicity”.
